The text below walks through data of article PMC9147192, “Small Molecule Arranged Thermal Proximity Coaggregation (smarTPCA)—A Novel Approach to Characterize Protein–Protein Interactions in Living Cells by Similar Isothermal Dose–Responses” (International Journal of Molecular Sciences, 2022).

In the assay the target is T1, DDX18 (Homo sapiens, UniProt Q9NVP1).
T1 construct: endogenous in cells; host or cells: HL-60 (ATCC CCL-240)
T1 sequence (Q9NVP1 1-670): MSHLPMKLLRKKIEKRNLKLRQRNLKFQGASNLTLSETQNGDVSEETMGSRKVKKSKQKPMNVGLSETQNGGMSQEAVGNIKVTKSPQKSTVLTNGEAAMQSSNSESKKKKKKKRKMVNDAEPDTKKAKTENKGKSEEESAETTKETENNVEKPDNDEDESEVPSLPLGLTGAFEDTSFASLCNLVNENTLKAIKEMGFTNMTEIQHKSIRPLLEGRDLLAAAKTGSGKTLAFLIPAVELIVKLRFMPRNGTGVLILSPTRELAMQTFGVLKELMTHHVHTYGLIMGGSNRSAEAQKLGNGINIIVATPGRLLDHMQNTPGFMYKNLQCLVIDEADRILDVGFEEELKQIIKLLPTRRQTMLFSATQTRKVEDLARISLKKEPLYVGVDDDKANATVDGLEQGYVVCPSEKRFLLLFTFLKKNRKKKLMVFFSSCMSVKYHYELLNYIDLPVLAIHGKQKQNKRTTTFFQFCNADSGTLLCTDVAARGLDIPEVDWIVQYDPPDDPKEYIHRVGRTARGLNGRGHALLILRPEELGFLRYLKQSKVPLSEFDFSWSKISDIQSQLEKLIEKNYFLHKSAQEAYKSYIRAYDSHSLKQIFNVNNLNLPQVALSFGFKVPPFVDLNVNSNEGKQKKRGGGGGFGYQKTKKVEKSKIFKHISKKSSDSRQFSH
The assay is described as follows: TPP-CCR in living HL-60 cells. Format: cell-based.

As a reminder, the Hill slope is the slope factor of the fitted curve. `Cc1cnc(Nc2ccc(F)cc2Cl)nc1-c1c[nH]c(C(=O)N[C@H](CO)c2cccc(Cl)c2)c1` [ERK 11e]: the Hill slope (TPP-CCR, living cells, DDX18) worked out at 0.20. Moreover, the “Hill slope (DDX18)” value (living HL-60 cells, […] °C, TMT-MS) came to 0.20. For the same compound, the EC50 (living HL-60 cells, […] °C, TMT-MS, read-out: pEC50 (DDX18) (converted)) is 200 nM.
